We go through four compounds from ChEMBL document CHEMBL4814008, “Using porphyrins as albumin-binding molecules to enhance antitumor efficacies and reduce systemic toxicities of antimicrobial peptides” (Eur J Med Chem, 2021).

The nature of data set [1]: Drug uptake in human L02 cells by flow cytometric analysis. It is filed as ADME, cell-based. In general terms: A flow cytometer gives signals particle by particle.
A further data set deals with Albumin (Homo sapiens, UniProt P02768). The experiment in a line: Binding affinity to human serum albumin assessed as dissociation constant by fluorescence emission spectrophotometric analysis. It is filed as ADME, cell-free.
A short description of data set [2]: Drug uptake in human MDA-MB-231 cells by flow cytometric analysis. It is filed as ADME, cell-based.
Data set [3] concerns 4T1. Nature of the data set: Phototoxicity against mouse 4T1 cells in presence of illumination by MTT assay relative to control. It is filed as functional. (In general: Tetrazolium dyes change colour on reduction, which living cells bring about.)
The test system of data set [4] is 4T1. The experiment in a line: Phototoxicity against mouse 4T1 cells in presence of illumination by MTT assay. It is filed as functional, cell-based. The note with it: 4T1, light or radiation study.
In the next data set the test system is CWR22R. The experiment in a line: Cytotoxicity against human 22RV1 cells. It is filed as functional, cell-based.
Data set [5] has as its system 4T1. Nature of the data set: Antitumor activity against mouse 4T1 cells xenografted in BALB/c mouse assessed as reduction in tumor weight at 2.4 mg/kg, iv dosed every 3 days for 23 days and illuminated with 670 nm laser light 30 mins after the first dose and measured on day 23. It is filed as functional. As to conditions: 4T1, iv, 552 h, time 23 day.
The nature of data set [6]: Binding affinity to 1-20% fetal bovine serum protein in PBS assessed as increase in fluorescence emission by fluorescence spectrophotometric analysis. It is filed as ADME, cell-free, Bos taurus. The note with it: cattle.
The test system of data set [7] is 4T1. The experiment in a line: Anti-metastatic activity against mouse 4T1 cells xenografted in BALB/c mouse assessed as metastasized area in lungs at 2.4 mg/kg, iv dosed every 3 days for 23 days and measured on day 30 by hematoxylin and eosin staining based analysis (reference value: 44.8%). It is filed as functional. The note with it: time 30 day.
For data set [8], the system named is 4T1. Nature of the data set: Antitumor activity against mouse 4T1 cells xenografted in BALB/c mouse assessed as inhibition of tumor growth at 2.4 mg/kg, iv dosed every 3 days for 23 days. As to conditions: time 23.0 day. It is filed as functional, organism-based.
In data set [9] the test system is 4T1. The experiment in a line: Anti-metastatic activity against mouse 4T1 cells xenografted in BALB/c mouse assessed as metastasized area in lungs at 2.4 mg/kg, iv dosed every 3 days for 23 days and illuminated with 670 nm laser light 30 mins after the first dose and measured on day 30 by hematoxylin and eosin staining based analysis (reference value: 44.8%). It is filed as functional. The note with it: time 30 day.

A short description of data set [10]: Toxicity in ICR mouse assessed as effect on spleen morphology at 100 uM, iv measured after 24 hrs by H and E staining based light microscopic analysis. It is filed as organism-based. As to conditions: in vivo.
Data set [11] deals with MDA-MB-231. The experiment in a line: Induction of apoptosis in human MDA-MB-231 cells assessed as early apoptotic cells at […] by flow cytometric analysis. It is filed as functional. As to conditions: dose 2.5 µM.
Data set [12] relates to MDA-MB-231. Nature of the data set: Induction of apoptosis in human MDA-MB-231 cells assessed as necrotic cells at […] by flow cytometric analysis. It is filed as functional. The note with it: dose 2.5 µM.
The nature of data set [13]: Toxicity in ICR mouse assessed as effect on lungs morphology at 100 uM, iv measured after 24 hrs by H and E staining based light microscopic analysis. It is filed as organism-based. The note with it: in vivo.
A short description of data set [14]: Toxicity in ICR mouse assessed as effect on heart morphology at 100 uM, iv measured after 24 hrs by H and E staining based light microscopic analysis. It is filed as organism-based. The note with it: in vivo.
Data set [15] is described as follows: Drug localization in mitochondria of human MDA-MB-231 cells at 0.5 uM by DAPI staining based confocal laser scanning microscopic method. It is filed as ADME. As to conditions: mda-mb-231, 0.5 µM.
Data set [16] in a line: Drug localization in lysosomes of human MDA-MB-231 cells at 0.5 uM by DAPI staining based confocal laser scanning microscopic method. It is filed as ADME, subcellular, Lysosome. The note with it: mda-mb-231, 0.5 µM.
The nature of data set [17]: Binding affinity to 1-20% fetal bovine serum protein in PBS assessed as shift in Q-band by UV/Vis spectrophotometric analysis. The note with it: cattle. It is filed as ADME, cell-free, Bos taurus.
Data set [18] relates to Erythrocyte. The experiment in a line: Induction of hemolysis in RBC (unknown origin) in presence of 10% FBS. It is filed as cell-based.
Data set [19] has as its system MDA-MB-231. The experiment in a line: Induction of apoptosis in human MDA-MB-231 cells assessed as necrotic cells at […] in presence of illumination by flow cytometric analysis. It is filed as functional. As to conditions: dose 0.25 µM.
Data set [20] can be described thus: Drug localization in nucleus of human MDA-MB-231 cells at 0.5 uM by DAPI staining based confocal laser scanning microscopic method. It is filed as ADME, subcellular. As to conditions: mda-mb-231, 0.5 µM.
A short description of data set [21]: Time-dependent drug uptake in mouse 4T1 cells measured for 24 hrs by flow cytometric analysis. It is filed as ADME, cell-based. As to conditions: 4t1, 24 h, TDE = time-dependent effect.
Data set [22] deals with Erythrocyte. Nature of the data set: Induction of hemolysis in RBC (unknown origin) in absence of serum. It is filed as cell-based.
The subject of data set [23] is MDA-MB-231. Nature of the data set: Phototoxicity against human MDA-MB-231 cells assessed as reduction in cell viability at 0.5 uM in presence of illumination by calcein-AM/PI staining based fluorescence analysis. It is filed as functional.
The test system of data set [24] is 4T1. The experiment in a line: Antitumor activity against mouse 4T1 cells xenografted in BALB/c mouse assessed as reduction in tumor weight at 2.4 mg/kg, iv dosed every 3 days for 23 days and measured on day 23. It is filed as functional. The note with it: 4T1, iv, 552 h, time 23 day.
Data set [25] is described as follows: Hepatotoxicity in ICR mouse assessed as hepatocytes with intact nuclei and cytoplasm at 100 uM, iv measured after 24 hrs by H and E staining based light microscopic analysis. It is filed as toxicity, organism-based.
A short description of data set [26]: Toxicity in ICR mouse assessed as effect on kidney morphology at 100 uM, iv measured after 24 hrs by H and E staining based light microscopic analysis. The note with it: in vivo. It is filed as organism-based.
Data set [27] deals with MDA-MB-231. Nature of the data set: Cytotoxicity against human MDA-MB-231 cells assessed as reduction in cell viability at 5 uM by calcein-AM/PI staining based fluorescence analysis. It is filed as functional.
Data set [28] relates to MDA-MB-231. The experiment in a line: Induction of apoptosis in human MDA-MB-231 cells assessed as early apoptotic cells at […] in presence of illumination by flow cytometric analysis. As to conditions: dose 0.25 µM. It is filed as functional.
A short description of data set [29]: Drug uptake in tumor of BALB/c mouse xenografted with mouse 4T1 cells at 100 uM, iv measured after 120 hrs by fluorescence molecular tomography. It is filed as ADME, organism-based, Neoplasm. As to conditions: in vivo.
Data set [30] deals with 4T1. Nature of the data set: Cytotoxicity against mouse 4T1 cells by MTT assay. It is filed as functional, cell-based.
The subject of data set [31] is MDA-MB-231. The experiment in a line: Cytotoxicity against human MDA-MB-231 cells assessed as reduction in cell viability at 0.5 uM by calcein-AM/PI staining based fluorescence analysis. It is filed as functional.
Data set [32] in a line: Hepatotoxicity in ICR mouse assessed as hepatocytes with extensive shrinking cytoplasm, destroyed intercellular connections, necrotic cells with smeared nuclei at 100 uM, iv measured after 24 hrs by H and E staining based light microscopic analysis. It is filed as toxicity, organism-based.

SMILES strings stand for the structures. The source made the active and inactive calls. The calls are words filed in the database; no cut-off is given here.

Sequence of Albumin (P02768 whole entry): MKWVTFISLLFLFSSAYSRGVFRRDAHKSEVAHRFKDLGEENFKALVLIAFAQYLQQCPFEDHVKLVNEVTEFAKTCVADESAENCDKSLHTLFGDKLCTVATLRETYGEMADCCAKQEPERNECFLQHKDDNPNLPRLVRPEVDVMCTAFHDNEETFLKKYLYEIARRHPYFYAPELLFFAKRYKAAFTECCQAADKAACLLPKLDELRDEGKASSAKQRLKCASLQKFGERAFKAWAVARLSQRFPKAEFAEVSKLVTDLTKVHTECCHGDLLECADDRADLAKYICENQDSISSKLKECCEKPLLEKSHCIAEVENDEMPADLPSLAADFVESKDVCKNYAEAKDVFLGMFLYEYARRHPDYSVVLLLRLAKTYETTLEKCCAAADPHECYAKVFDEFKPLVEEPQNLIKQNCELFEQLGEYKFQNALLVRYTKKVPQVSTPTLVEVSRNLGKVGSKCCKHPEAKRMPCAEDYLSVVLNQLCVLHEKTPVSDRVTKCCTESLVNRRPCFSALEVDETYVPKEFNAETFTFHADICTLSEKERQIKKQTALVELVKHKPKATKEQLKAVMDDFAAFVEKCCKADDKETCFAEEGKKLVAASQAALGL

`C=Cc1c(C)c2cc3nc(c4c5[nH]c(cc6nc(cc1[nH]2)C(C)=C6CC)c(C)c5C(=O)C4)[C@@H](CCC(=O)O)[C@@H]3C` [PYROPHEOPHORBIDE A]: the Drug uptake entry in data set [1] and in data set [2] was “Active” each time. In addition, on Albumin, the Kd (in general, the concentration at which binding is half-saturated) amounted to 0.0893 µM. Moreover, in the data set with 4T1 [3], the Activity came out at 90%. For the same compound, in the data set on 4T1 [4], the IC50 – broadly, the concentration that inhibits the measured activity by half – stood at 0.13 µM.

Compound `CC(C)C[C@H](NC(=O)[C@H](CC(C)C)NC(=O)[C@@H](CCCCN)NC(=O)[C@H](CC(C)C)NC(=O)[C@H](CC(C)C)NC(=O)[C@H](CCCCN)NC(=O)[C@@H](CCCCN)NC(=O)[C@@H](CC(C)C)NC(=O)[C@H](CC(C)C)NC(=O)[C@@H](CCCCN)NC(=O)[C@H](CCCCN)NC(=O)[C@H](CC(C)C)NC(=O)[C@@H](CC(C)C)NC(=O)[C@H](CCCCN)NC(=O)[C@H](CC(C)C)NC(=O)CNC(=O)CN)C(N)=O` gave an IC50 in the data set on CWR22R of 6 µM.

For the compound `C=Cc1c(C)c2cc3nc(c4c5[nH]c(cc6nc(cc1[nH]2)C(C)=C6CC)c(C)c5C(=O)C4)[C@@H](CCC(=O)NCC(=O)NCC(=O)N[C@@H](CC(C)C)C(=O)N[C@@H](CCCCN)C(=O)N[C@H](CC(C)C)C(=O)N[C@@H](CC(C)C)C(=O)N[C@@H](CCCCN)C(=O)N[C@H](CCCCN)C(=O)N[C@@H](CC(C)C)C(=O)N[C@H](CC(C)C)C(=O)N[C@H](CCCCN)C(=O)N[C@@H](CCCCN)C(=O)N[C@@H](CC(C)C)C(=O)N[C@@H](CC(C)C)C(=O)N[C@H](CCCCN)C(=O)N[C@@H](CC(C)C)C(=O)N[C@@H](CC(C)C)C(N)=O)[C@@H]3C`, the inhibition in vivo – broadly, how much of the control response was suppressed – at 2.4 mg/kg in the data set with 4T1 [5] worked out at 98.4%; in the data set on 4T1 [24] it was 90.1%. In addition, the Activity entry in [6] is “Active”; in the data set on 4T1 [7], 4.7%; in the data set with 4T1 [9] it was 1.5%; in data set [10], “Non-Toxic”; in the data set with MDA-MB-231 [11] it was 7.48%; with MDA-MB-231 [12] it was 37.52%. For the same compound, the Activity result is given as “Non-Toxic” in [13]; “Non-Toxic” in [14]; “Active” in data set [17]; “Non-Toxic” with Erythrocyte [18]; 29% in the data set on MDA-MB-231 [19]; “Toxic” with Erythrocyte [22]. For the same compound, the Activity with 4T1 [3] is 100%; in data set [25], “Non-Toxic”; in [26] it was “Non-Toxic”; in the data set with MDA-MB-231 [28], 10.1%; in the data set with 4T1 [30], “Dose-Dependent Effect”. In addition, the outcome with 4T1 [8], with MDA-MB-231 [23] and with MDA-MB-231 [27] was Active. Also, the Drug uptake entry in [1] is given as “Not Active”; in [15] it was “Active”; in data set [16], “Active”; in data set [2], “Active”; in data set [20], “Not Active”; in data set [21] it was “Tde”. For the same compound, the Drug uptake entry in data set [29] is “Active”. Moreover, at Albumin, the Kd worked out at 0.363 µM. Moreover, the results for the IC50 in the data set with 4T1 [4] and in the data set with 4T1 [30] were 0.38 µM and 1.69 µM, respectively. The result with MDA-MB-231 [31] was inactive.

For the compound `CCN(CC)c1ccc2c(-c3ccccc3C(=O)NCC(=O)NCC(=O)N[C@@H](CC(C)C)C(=O)N[C@@H](CCCCN)C(=O)N[C@H](CC(C)C)C(=O)N[C@@H](CC(C)C)C(=O)N[C@@H](CCCCN)C(=O)N[C@H](CCCCN)C(=O)N[C@@H](CC(C)C)C(=O)N[C@H](CC(C)C)C(=O)N[C@H](CCCCN)C(=O)N[C@@H](CCCCN)C(=O)N[C@@H](CC(C)C)C(=O)N[C@@H](CC(C)C)C(=O)N[C@H](CCCCN)C(=O)N[C@@H](CC(C)C)C(=O)N[C@@H](CC(C)C)C(N)=O)c3ccc(=[N+](CC)CC)cc-3oc2c1`, the Activity in the data set on 4T1 [7] is 14.5%; in data set [10] it was “Non-Toxic”; in data set [13], “Non-Toxic”; in data set [14], “Non-Toxic”; in the data set with Erythrocyte [18], “Non-Toxic”; in the data set with Erythrocyte [22], “Toxic”. Also, the values for the Activity entry in data set [32] and in [26] were “Toxic” and “Non-Toxic”, respectively. In addition, the outcome in the data set with 4T1 [8] was Active. Besides, the inhibition in vivo at 2.4 mg/kg with 4T1 [24] is 47.3%.
